Measurements taken from article PMC4700268 (Frontiers in Pharmacology, 2016).
Several values for one entry are separate records, joined by “and”; a condition that tells them apart may be missing. Equal values may be shown once. Read-outs that look alike come from different tables or passages of the source.

Assays:
[1] = test system: MDCK II cells transiently transfected with hCNT3; test: MTS cell viability assay in hCNT3 transfected MDCK II cells; type: cell-based, canine; details: 24 h, 250–1000 μM, hCNT3 vs empty vector MDCK II cells
Method: The controls were prepared simultaneously.

hCNT2 = target: T1, hCNT2 (Homo sapiens, UniProt O43868); test: [3H]ETV uptake in hCNT2 transfected cells; details: 5 min, 37°C
T1 sequence (O43868 1-658): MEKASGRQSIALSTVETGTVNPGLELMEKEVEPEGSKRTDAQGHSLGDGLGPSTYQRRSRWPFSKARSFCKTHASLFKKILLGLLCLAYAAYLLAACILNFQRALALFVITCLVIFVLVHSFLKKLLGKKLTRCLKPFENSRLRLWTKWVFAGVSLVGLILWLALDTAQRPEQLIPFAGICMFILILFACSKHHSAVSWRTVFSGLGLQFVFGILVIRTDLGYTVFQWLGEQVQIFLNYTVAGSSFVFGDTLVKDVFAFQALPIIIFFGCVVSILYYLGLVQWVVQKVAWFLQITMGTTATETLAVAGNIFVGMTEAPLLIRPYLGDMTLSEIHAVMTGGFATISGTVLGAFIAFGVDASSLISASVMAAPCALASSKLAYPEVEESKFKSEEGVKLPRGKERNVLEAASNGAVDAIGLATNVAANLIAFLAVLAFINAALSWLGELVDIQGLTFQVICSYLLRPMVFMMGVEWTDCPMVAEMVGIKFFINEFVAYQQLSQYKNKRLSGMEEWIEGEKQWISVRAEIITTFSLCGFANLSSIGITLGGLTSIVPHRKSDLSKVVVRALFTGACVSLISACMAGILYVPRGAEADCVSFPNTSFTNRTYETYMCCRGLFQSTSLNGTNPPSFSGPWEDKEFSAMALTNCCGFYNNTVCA

hOAT1 = target: T2, hOAT1 (Homo sapiens, UniProt Q4U2R8); test: Inhibition by ETV of [3H]adefovir, [3H]tenofovir, [3H]cidofovir accumulation in hOAT1 transfected HeLa cells; type: in vitro ADME; design: host or cells: HeLa cells, transient transfection; details: 2 min
T2 sequence (Q4U2R8 1-563): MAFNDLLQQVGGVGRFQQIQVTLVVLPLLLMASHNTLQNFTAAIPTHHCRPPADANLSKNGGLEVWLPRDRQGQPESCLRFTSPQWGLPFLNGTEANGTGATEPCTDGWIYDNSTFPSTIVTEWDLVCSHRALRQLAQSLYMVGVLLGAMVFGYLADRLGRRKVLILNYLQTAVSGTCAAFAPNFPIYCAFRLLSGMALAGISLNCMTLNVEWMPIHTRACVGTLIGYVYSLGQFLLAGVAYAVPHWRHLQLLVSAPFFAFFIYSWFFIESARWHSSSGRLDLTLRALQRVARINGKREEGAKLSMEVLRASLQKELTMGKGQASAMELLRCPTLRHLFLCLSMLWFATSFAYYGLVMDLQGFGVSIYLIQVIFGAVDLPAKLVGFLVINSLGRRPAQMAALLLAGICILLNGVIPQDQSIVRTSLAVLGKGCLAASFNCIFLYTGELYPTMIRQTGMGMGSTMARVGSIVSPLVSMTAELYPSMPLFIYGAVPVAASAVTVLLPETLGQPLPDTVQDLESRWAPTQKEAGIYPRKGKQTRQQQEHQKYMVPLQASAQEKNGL
Method: Inhibitory transport assays were carried out in 24-well plates as described previously ([Mandikova et al., 2013]). Transport assays in HeLa cells transiently transfected with the hOAT1 expression construct were performed 48 h after transfection. Transport assays in MDCK II cells transiently transfected with hOCT2, hCNT2 or hCNT3 were performed 24 h after transfection. The cultivation medium was removed and the cells were washed with transport solution and preincubated for 10 min at 37°C. The standard radiolabeled substrate or tested radioactive antiviral substance dissolved in transport solution was added to the cells and incubated for 2 min. […] After the designated time period, the incubation was stopped by washing the cells twice with ice-cold solution containing 137 mM NaCl and 10 mM HEPES, pH 7.4. The cells were disintegrated with 0.1 mL of Triton X 0.5% in 100 mM NaOH for 1 h. […] IC50 values were calculated using non-linear regression analysis using GraphPad Prism software (version 6).

[2] = Urinary excretion of ETV and estimated concentration in final urine; type: in vivo; details: 1 mg dose, 24 h-urinary volume of 1 L

## C=C1[C@H](CO)[C@@H](O)C[C@@H]1n1cnc2c(=O)[nH]c(N)nc21 [ETV, Entecavir]
[1]
  Effect of hCNT3 expression on cytotoxicity: did not prove any significant increase in cytotoxicity
hCNT2
  Vmax of [3H]ETV uptake by hCNT2: 68.88 nmol/mg protein/5 min
hOAT1; IC50, inhibition of [3H]cidofovir accumulation by hOAT1, [3H]cidofovir 70 μM
  IC50: 695 µM
hOAT1; [3H]adefovir 0.1 μM, read-out: IC50, inhibition of [3H]adefovir accumulation by hOAT1
  IC50: 432 µM
hOAT1; [3H]tenofovir 0.5 μM, read-out: IC50, inhibition of [3H]tenofovir accumulation by hOAT1
  IC50: 704 µM
[2]
  Estimated concentration in the final urine: approximately 700 μg/L and ~2.5 μM
